Results on six compounds are retold here after patent publication EP0034754A1, “2-((3-amino-2-hydroxy-propoxy)-styryl) isoxazoles, process for their preparation and pharmaceutical compositions containing them” (BASF Aktiengesellschaft, priority 1980, dated 1981).

Where two headings read alike, the source gives them in different places.

Data set [1] deals with Isoproterenol-Tachycardie. As to the kind of experiment: ß-sympatholytic effect: inhibition of isoproterenol-induced tachycardia in despinalised rats. It is filed as in vivo. As to conditions: Rattus norvegicus, iv, 5 min, read-out: ß-Sympatholytische Wirkung Ratte i.v. ED 50 %. The procedure:
ß-sympatholytische Wirkung: • An despinalisierten Ratten (Stamm: Sprague Dawley, männlich, Gewicht 200 bis 240 g) verursacht Isoproterenol (0,1/ug/kg intravenös) Herfrequenzsteigerungen um durchschnittlich 121 + 2,1 min bei einer Ausgangsfrequenz von 268 + 3,9 min^-1 (Anzahl der Tiere N = 100). ß-Sympatholytika hemmen diese Frequenzsteigerungen spezifisch und dosisabhängig. Die Applikation der getesteten Substanzen erfolgt 5 min vor der Isoproterenolgabe.
Als ED 50 % werden die Dosen ermittelt, welche die Isoproterenol-Tachycardie um 50 % hemmen.
Als Referenzsubstanz dient das bekannte ß-Sympatholytikum Propranolol.

Another data set relates to mittleren Carotisdruck. The data set is described as follows: Blood-pressure-lowering effect in the anaesthetised rat (urethane), carotid pressure. It is filed as in vivo, Ratte. As to conditions: i.v.; for ED20: Rattus norvegicus, iv, Sprague Dawley rats under urethane anaesthesia, dose lowering mean carotid pressure by 20 %, read-out: Blutdrucksenkende Wirkung Ratte i.v. ED 20 %. The text has this:
Blutdrucksenkende Wirkung an der narkotisierten Ratte: • Zur Feststellung der blutdrucksenkenden Wirkung erhalten männliche Ratten (Stamm: Sprague Dawley, Gewicht: 230 bis 280 g) in Urethan-Narkose (1,78 g/kg intraperitoneal) die Prüfsubstanzen intravenös appliziert. Die Messung des Blutdruckes in der Aorta carotis erfolgt über Statham--Transducer.
Als ED 20 % wird die Dosis ermittelt, welche den mittleren Carotisdruck um 20 % senkt.

A further data set is described as follows: in vivo. As to conditions: for LD50: mouse, ip.
The mark [2] stands for this setting: despinalised Sprague Dawley rats, i.v., given 5 min before isoproterenol 0,1 µg/kg i.v., dose inhibiting tachycardia by 50 %.

As to `COCc1cc(C=Cc2ccccc2OCC(O)CNC(C)C)on1` (stereo not drawn) [Beispiel 3, 3-Methoxymethyl-5-[2-(2-hydroxy-3-isopropylamino-propoxy)--styryl]-isoxazol], the ED50 in data set [1] (setting [2]) came out at 0.0064 mg/kg. The ED20 in the data set with mittleren Carotisdruck amounted to 1 mg/kg. In the data set “in vivo”, the selectivity ratio was determined as 18900 and the LD50 was determined as 121 mg/kg.

For `COCc1cc(C=Cc2ccccc2OCC(O)CNC(C)(C)C)on1` (stereo not drawn) [Beispiel 4, 3-Methoxymethyl-5-[2-(2-hydroxY-3-tert.-butylamino-prop-oxy)-styryl]-isoxazol], the ED50 in data set [1] (setting [2]) was determined as 0.00742 mg/kg. In the data set on mittleren Carotisdruck, the ED20 is 1 mg/kg. Also, in “in vivo”, the selectivity ratio was 13500 and the median lethal dose (LD50) was found to be 100 mg/kg.

As to `COCc1cc(C=Cc2ccccc2OCC(O)CNC2CC2)on1` (stereo not drawn) [Beispiel 9, 5-[2-(2-Hydroxy-3-cyclopropylamino-propoxy)-styryl]-3-methoxymethyl-isoxazol], the ED50 in data set [1] (setting [2]) is 0.01 mg/kg. In addition, in the data set “in vivo”, the selectivity ratio was found to be 12100 and the LD50 was 121 mg/kg.

As to `Cc1noc(C=Cc2ccccc2OCC(O)CNC(C)(C)C)c1Cl` (stereo not drawn) [Beispiel 16, 4-Chlor-3-methyl-5-[2-(2-hydroxy-3-tert.-butylamino-prop-oxy)-styryl]-isoxazol], the ED50 in data set [1] (setting [2]) turned out to be 0.01 mg/kg. Also, the ED20 in the data set on mittleren Carotisdruck amounted to 1 mg/kg. Moreover, in the data set “in vivo”, the selectivity ratio worked out at 14700 and the LD50 came out at 147 mg/kg.

Consider `Cc1noc(C=Cc2ccccc2OCC(O)CNC(C)C)c1Cl` (stereo not drawn) [Beispiel 17, 4-Chlor-3-methyl-5-[2-(2-hydroxy-3-isopropylamino-prop-oxy)-styryl]-isoxazol], for which, in data set [1] (setting [2]), the ED50 was determined as 0.00681 mg/kg. In addition, the ED20 in the data set on mittleren Carotisdruck is 1.95 mg/kg. In addition, in the data set “in vivo”, the selectivity ratio is 75000 and the LD50 is 511 mg/kg.

For `CC(C)NCC(O)COc1cccc2ccccc12` (stereo not drawn) [Propranolol, reference compound], the ED50 in data set [1] is 0.0127 mg/kg. In addition, in the data set with mittleren Carotisdruck (rat, up to a dose of 2,15 mg/kg), the “Blutdrucksenkende Wirkung” value is reported as “senkt den Blutdruck bis zu einer Dosis von 2,15 mg/kg nicht”.

In general, LD50 refers to the dose expected to kill half of the subjects tested.
